Patent publication US11478466B2, “Small molecule promoting osteoblast differentiation” (Cornell University, priority 2019, dated 2022)

What was measured:
[1] = tested on: alkaline phosphatase (ALP); settings: 154-analog library, 10 μM, C2C12, duplicate
Source text: (§1) To identify small-molecule activators of osteoblast differentiation, we measured ALP activity using a fluorescent emission assay as a reporter for enzymatic digestion of ALP substrate in lysates derived from C2C12 myoblasts. […] Therefore, before screening, the assay was calibrated using recombinant human BMP4 protein as a positive control. Compounds were robotically deposited onto 384-well plates and then overlaid by C2C12 cells for a 4-day culture period, followed by lysis and fluorescent substrate assays (FIG. 1A; Table 1). To ensure uniformity, C2C12 cells were maintained in normal culture medium containing 10% fetal bovine serum, and lysis and substrate addition achieved using a microplate multidrop device. The primary screen (Table 2) encompassed greater than 47,000 small molecules tested at a final concentration of 10 μM.
(§2) For the primary screen, library compounds were distributed onto 384-well microplates (Greiner Bio-One 781091) at a final concentration of 10 μM in culture medium using a Perkin Elmer Janus automated workstation and WinPrep Version 4.8.3.315. Positive (rhBMP4, 1 ng/ml, R&D Systems) and negative controls (DMSO, 0.2%) were manually added to each plate by multichannel pipet. C2C12 cells were seeded onto compounds and controls at a density of 2000/well using a Thermo Multidrop Combi reagent dispenser and cultured for 4 days at 37° C., 5% CO2. Culture medium was aspirated using a BioTek EL406 plate washer and cells were lysed in RIPA buffer (Millipore 20-188) at ambient temperature for 10 minutes. 10 μl fluorescent alkaline phosphatase substrate (AttoPhos, Promega S1000) was added to lysates and incubated an additional 10 minutes before measuring the fluorescence (Excitation 450 nm/Emission 580 nm) on a BioTek Synergy Neo2 stacking microplate reader. Plates were processed and relative fluorescence raw values measured in stacks of 10-20. The data were processed using Collaborative Drug Discovery web-based software (CDD Vault) to determine Z score calculated on DMSO control wells and percent activation normalized against positive and negative controls (NPA). Cherry-picked hit candidates were re-tested in concentration response experiments, from which 4 candidates were chosen and purchased for further testing from either ChemBridge or Enamine, based on availability.
(§3) We also purchased a library of 154 structural chemical analogs assembled by ChemBridge Corp. from available screening library compounds.

[2] = tested on: alkaline phosphatase (ALP); assay: cells; settings: Mus musculus, C2C12, 96 h
Source text: as §1, §2, §3

## Cc1cc(C)c2[nH]c(=O)c(-c3nccn3Cc3ccccn3)cc2c1 [RU-0424465]
[1]
  RFU Score (10 μM): 427
[2]
  activation at 10 µM: 5.14%

## Cn1cnnc1Sc1ccc(-c2[nH]cnc2-c2ccccc2)o1 [RU-0424466]
[1]
  RFU Score (10 μM): 527
[2]
  activation at 10 µM: 8.64%

## CO[C@H]1CN(C(=O)c2[nH]cnc2-c2ccccc2)CC[C@H]1N [RU-0424467]
[1]
  RFU Score (10 μM): 508
[2]
  activation at 10 µM: 7.99%

## COc1ncccc1-n1ccnc1-c1cc2cc(C)cc(C)c2[nH]c1=O [RU-0424468]
[1]
  RFU Score (10 μM): 508
[2]
  activation at 10 µM: 7.97%

## Cc1cc(C)c2[nH]c(=O)c(CN(C)Cc3cc(-c4cccnc4)no3)cc2c1 [RU-0424469]
[1]
  RFU Score (10 μM): 536
[2]
  activation at 10 µM: 8.96%

## O=C1OCC2(CCN(C(=O)c3[nH]cnc3-c3ccccc3)CC2)O1 [RU-0424470]
[1]
  RFU Score (10 μM): 497
[2]
  activation at 10 µM: 7.58%

## Cc1cc(C)c2[nH]c(=O)c(CN3CCCC4(C3)CN(C)C(=O)O4)cc2c1 (stereo not drawn) [RU-0424471]
[1]
  RFU Score (10 μM): 524
[2]
  activation at 10 µM: 8.55%

## COc1ccccc1N1CCN(C(=O)c2[nH]cnc2-c2ccccc2)CC1=O [RU-0424472]
[1]
  RFU Score (10 μM): 397
[2]
  activation at 10 µM: 4.08%

## CCNC(=O)[C@@H]1CCCN1Cc1cc2cc(C)cc(C)c2[nH]c1=O [RU-0424473]
[1]
  RFU Score (10 μM): 470
[2]
  activation at 10 µM: 6.63%

## Cc1cc(C)c2[nH]c(=O)c(C3c4nc[nH]c4CCN3Cc3ccco3)cc2c1 (stereo not drawn) [RU-0424474]
[1]
  RFU Score (10 μM): 566
[2]
  activation at 10 µM: 10%

## O=C(Nc1cnc2n1CCCC2)c1[nH]cnc1-c1ccccc1 [RU-0424475]
[1]
  RFU Score (10 μM): 491
[2]
  activation at 10 µM: 6.39%

## Cc1cc(C)c2[nH]c(=O)c(CN3C[C@H]4CC[C@@H](C3)N(C)C4=O)cc2c1 [RU-0424476]
[1]
  RFU Score (10 μM): 520
[2]
  activation at 10 µM: 8.41%

## CN(C)C1CCN(C(=O)c2cccc(-c3[nH]cnc3-c3ccccc3)c2)C1 (stereo not drawn) [RU-0424477]
[1]
  RFU Score (10 μM): 469
[2]
  activation at 10 µM: 6.59%

## CCC(C)Sc1ccc(-c2[nH]cnc2-c2ccccc2)cn1 (stereo not drawn) [RU-0424478]
[1]
  RFU Score (10 μM): 361
[2]
  activation at 10 µM: 2.79%

## CCN(CCN(C)C)C(=O)c1cccc(-c2[nH]cnc2-c2ccccc2)c1 [RU-0424479]
[1]
  RFU Score (10 μM): 525
[2]
  activation at 10 µM: 8.57%

## CC(C)(O)C#Cc1ccc(-c2[nH]cnc2-c2ccccc2)cc1 [RU-0424480]
[1]
  RFU Score (10 μM): 575
[2]
  activation at 10 µM: 10.4%

## O=C(O)Cc1cc(C2CCN(C(=O)c3[nH]cnc3-c3ccccc3)CC2)[nH]n1 [RU-0424481]
[1]
  RFU Score (10 μM): 526
[2]
  activation at 10 µM: 8.62%

## COc1cccc(-c2[nH]cnc2-c2ccccc2)c1OCCCn1ccnc1 [RU-0424482]
[1]
  RFU Score (10 μM): 567
[2]
  activation at 10 µM: 10.1%

## CO[C@@H]1CCOC[C@H]1NC(=O)c1[nH]cnc1-c1ccccc1 [RU-0424483]
[1]
  RFU Score (10 μM): 491
[2]
  activation at 10 µM: 7.37%

## Cc1nc(C2CCCN(C(=O)c3[nH]cnc3-c3ccccc3)C2)no1 (stereo not drawn) [RU-0424484]
[1]
  RFU Score (10 μM): 330
[2]
  activation at 10 µM: 1.72%

## CCc1cn[nH]c1C1CCN(C(=O)c2[nH]cnc2-c2ccccc2)CC1 [RU-0424485]
[1]
  RFU Score (10 μM): 515
[2]
  activation at 10 µM: 8.24%

## O=C(O)C1CN(C(=O)c2[nH]cnc2-c2ccccc2)CCN1 (stereo not drawn) [RU-0424486]
[1]
  RFU Score (10 μM): 438
[2]
  activation at 10 µM: 5.51%

## Cc1cc(C)c2[nH]c(=O)c(CN(Cc3cccnc3)C3CC3)cc2c1 [RU-0424487]
[1]
  RFU Score (10 μM): 501
[2]
  activation at 10 µM: 7.72%

## Cc1cc(C)c2[nH]c(=O)c(CN3CCc4[nH]cnc4C3C(=O)O)cc2c1 (stereo not drawn) [RU-0424488]
[1]
  RFU Score (10 μM): 462
[2]
  activation at 10 µM: 6.37%

## O=C(c1[nH]cnc1-c1ccccc1)N1CCC(Cc2cccnc2)CC1 [RU-0424489]
[1]
  RFU Score (10 μM): 551
[2]
  activation at 10 µM: 9.48%

## O=C(N[C@H]1CC[C@H]1NC1CCOCC1)c1[nH]cnc1-c1ccccc1 [RU-0424490]
[1]
  RFU Score (10 μM): 449
[2]
  activation at 10 µM: 5.91%

## Cc1cc(C)c2[nH]c(=O)c(CN3C[C@@H]4CCN(C)[C@@H]4C3)cc2c1 [RU-0424491]
[1]
  RFU Score (10 μM): 498
[2]
  activation at 10 µM: 7.63%

## Cc1cc(C)c2[nH]c(=O)c(-c3nccn3CCSc3cnn[nH]3)cc2c1 [RU-0424492]
[1]
  RFU Score (10 μM): 455
[2]
  activation at 10 µM: 6.11%

## CC1(C#N)CCN(C(=O)c2ccc(-c3[nH]cnc3-c3ccccc3)cc2)CC1 [RU-0424493]
[1]
  RFU Score (10 μM): 551
[2]
  activation at 10 µM: 9.53%

## COCC1(N(C)C(=O)c2ccc(-c3[nH]cnc3-c3ccccc3)cc2)CC1 [RU-0424494]
[1]
  RFU Score (10 μM): 501
[2]
  activation at 10 µM: 7.74%

## Cc1cc(C)c2[nH]c(=O)c(CN3[C@@H]4CC[C@H]3C[C@@H](O)C4)cc2c1 [RU-0424495]
[1]
  RFU Score (10 μM): 486
[2]
  activation at 10 µM: 7.21%

## Cc1ccnc(CC(C)N(C)Cc2cc3cc(C)cc(C)c3[nH]c2=O)c1 (stereo not drawn) [RU-0424496]
[1]
  RFU Score (10 μM): 516
[2]
  activation at 10 µM: 8.27%

## O=C(O)CNc1cc(-c2[nH]cnc2-c2ccccc2)c2cc[nH]c2n1 [RU-0424497]
[1]
  RFU Score (10 μM): 450
[2]
  activation at 10 µM: 5.93%

## Cc1cc(C)c2[nH]c(=O)c(CN(C)CCn3ccnc3C)cc2c1 [RU-0424498]
[1]
  RFU Score (10 μM): 486
[2]
  activation at 10 µM: 7.21%

## Cc1cc(C)c2[nH]c(=O)c(CN3CC(c4ccccn4)C3)cc2c1 [RU-0424499]
[1]
  RFU Score (10 μM): 498
[2]
  activation at 10 µM: 7.62%

## Cc1cc(C)c2[nH]c(=O)c(CN3CCC(O)(CN(C)C)C3)cc2c1 (stereo not drawn) [RU-0424500]
[1]
  RFU Score (10 μM): 523
[2]
  activation at 10 µM: 8.52%

## Cc1cc(C)c2[nH]c(=O)c(CN3C[C@H](O)C[C@H]3C(=O)O)cc2c1 [RU-0424501]
[1]
  RFU Score (10 μM): 487
[2]
  activation at 10 µM: 7.25%

## COCCCN1CCN(Cc2cc3cc(C)cc(C)c3[nH]c2=O)CC1 [RU-0424502]
[1]
  RFU Score (10 μM): 502
[2]
  activation at 10 µM: 7.78%

## CO[C@@H]1CC[C@@]2(OC)CCN(C(=O)c3[nH]cnc3-c3ccccc3)[C@H]2C1 [RU-0424503]
[1]
  RFU Score (10 μM): 436
[2]
  activation at 10 µM: 5.45%

## N#Cc1ccccc1-c1ccc(-c2[nH]cnc2-c2ccccc2)o1 [RU-0424504]
[1]
  RFU Score (10 μM): 309
[2]
  activation at 10 µM: 0.96%

## O=C(c1[nH]cnc1-c1ccccc1)N1CCc2onc(-c3cccc(F)c3)c2C1 [RU-0424505]
[1]
  RFU Score (10 μM): 326
[2]
  activation at 10 µM: 1.56%

## Cc1cc(C)c2[nH]c(=O)c(CN3CCCC(N(C)C)CC3)cc2c1 (stereo not drawn) [RU-0424506]
[1]
  RFU Score (10 μM): 364
[2]
  activation at 10 µM: 2.9%

## O=C(c1[nH]cnc1-c1ccccc1)N1CCC2(CCCO2)CC1 [RU-0424507]
[1]
  RFU Score (10 μM): 366
[2]
  activation at 10 µM: 2.99%

## Cc1cc(C)c2[nH]c(=O)c(CN(C)C(C)C(=O)N(C)C)cc2c1 (stereo not drawn) [RU-0424508]
[1]
  RFU Score (10 μM): 504
[2]
  activation at 10 µM: 7.85%

## Cc1cc(C)c2[nH]c(=O)c(CN(C)CCCn3cccn3)cc2c1 [RU-0424509]
[1]
  RFU Score (10 μM): 486
[2]
  activation at 10 µM: 7.19%

## Cc1cc(C)c2[nH]c(=O)c(CN(C)Cc3cnccn3)cc2c1 [RU-0424510]
[1]
  RFU Score (10 μM): 484
[2]
  activation at 10 µM: 7.14%

## Nc1nnc(C2CCN(C(=O)c3[nH]cnc3-c3ccccc3)CC2)[nH]1 [RU-0424511]
[1]
  RFU Score (10 μM): 467
[2]
  activation at 10 µM: 6.54%

## O=C(c1[nH]cnc1-c1ccccc1)N1CCOC(C(F)(F)F)C1 (stereo not drawn) [RU-0424512]
[1]
  RFU Score (10 μM): 455
[2]
  activation at 10 µM: 6.12%

## CO[C@@]12CC[C@H](O)C[C@@H]1N(C(=O)c1[nH]cnc1-c1ccccc1)CC2 [RU-0424513]
[1]
  RFU Score (10 μM): 435
[2]
  activation at 10 µM: 5.42%

## CCCn1cc(NC(=O)Cn2cc(-c3[nH]cnc3-c3ccccc3)cn2)nn1 [RU-0424514]
[1]
  RFU Score (10 μM): 386
[2]
  activation at 10 µM: 3.69%

## Cc1cc(C)c2[nH]c(=O)c(CN(C)CCc3cnn(C)c3)cc2c1 [RU-0424515]
[1]
  RFU Score (10 μM): 314
[2]
  activation at 10 µM: 1.16%

## O=C(c1[nH]cnc1-c1ccccc1)N1CCCC(c2ccncn2)C1 (stereo not drawn) [RU-0424516]
[1]
  RFU Score (10 μM): 392
[2]
  activation at 10 µM: 3.89%

## CNC(=O)[C@@H]1C[C@H](N)CN1Cc1cc2cc(C)cc(C)c2[nH]c1=O [RU-0424517]
[1]
  RFU Score (10 μM): 527
[2]
  activation at 10 µM: 8.64%

## Cc1cc(C)c2[nH]c(=O)c(-c3nccn3Cc3ccco3)cc2c1 [RU-0424518]
[1]
  RFU Score (10 μM): 484
[2]
  activation at 10 µM: 7.14%

## O=C(NCc1nc(-c2cnccn2)n[nH]1)c1[nH]cnc1-c1ccccc1 [RU-0424519]
[1]
  RFU Score (10 μM): 561
[2]
  activation at 10 µM: 9.84%

## CNC(=O)CC1C(=O)NCCN1Cc1cc2cc(C)cc(C)c2[nH]c1=O (stereo not drawn) [RU-0424520]
[1]
  RFU Score (10 μM): 532
[2]
  activation at 10 µM: 8.81%

## Cc1noc(C(C)N(C)C(=O)c2[nH]cnc2-c2ccccc2)n1 (stereo not drawn) [RU-0424521]
[1]
  RFU Score (10 μM): 604
[2]
  activation at 10 µM: 11.3%
